From patent US20240024488A1, “COMPOUNDS AND USES THEREOF” (Foghorn Therapeutics Inc., priority 2020, published 2024) come the findings set out here.

One assay addresses T1, HiBit-BRM fusion protein (Homo sapiens, UniProt P51531).
T1 construct: expressed in transfected cells
The experiment in a line: HiBiT-BRM cell-based degradation assay (Nano-Glo HiBiT Lytic Detection, 24 h). To be noted: HeLa cell line expressing HiBiT-BRM; for DC50: read-out: BRM HiBit Degradation IC50. In short, it runs like this: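 Stable HiBiT-BRM HeLa line; 24 h compound exposure, top final 30 μM, 3-fold, 10 pts in duplicate. Lytic HiBiT/LgBiT luminescence readout. % degradation vs DMSO (0%) and 2 μM known BRM/BRG1 degrader (100%).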
For orientation: The HiBiT peptide binds its large partner to form an active luciferase.

Assay [1] addresses T2, HiBit-BRG1 fusion protein (Homo sapiens, UniProt P51532).
T2 construct: expressed in transfected cells
The experiment in a line: HiBiT-BRG1 cell-based degradation assay (Nano-Glo HiBiT Lytic Detection, 24 h). Particulars: HeLa cell line expressing HiBit-BRG1 and LgBit; for Dmax: read-out: BRG1 HiBit Degradation Maximum (%). In short, it runs like this: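 Luminescence from Nano-Glo HiBiT lytic detection, read after 24 h compound exposure, scored degradation in a stable HeLa HiBiT-BRG1/LgBit line seeded at 5000 cells/well. DMSO wells defined 0% and 2 μM known BRM/BRG1 degrader wells defined full degradation.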

T2 sequence (P51532 whole entry, the tested form may be a part): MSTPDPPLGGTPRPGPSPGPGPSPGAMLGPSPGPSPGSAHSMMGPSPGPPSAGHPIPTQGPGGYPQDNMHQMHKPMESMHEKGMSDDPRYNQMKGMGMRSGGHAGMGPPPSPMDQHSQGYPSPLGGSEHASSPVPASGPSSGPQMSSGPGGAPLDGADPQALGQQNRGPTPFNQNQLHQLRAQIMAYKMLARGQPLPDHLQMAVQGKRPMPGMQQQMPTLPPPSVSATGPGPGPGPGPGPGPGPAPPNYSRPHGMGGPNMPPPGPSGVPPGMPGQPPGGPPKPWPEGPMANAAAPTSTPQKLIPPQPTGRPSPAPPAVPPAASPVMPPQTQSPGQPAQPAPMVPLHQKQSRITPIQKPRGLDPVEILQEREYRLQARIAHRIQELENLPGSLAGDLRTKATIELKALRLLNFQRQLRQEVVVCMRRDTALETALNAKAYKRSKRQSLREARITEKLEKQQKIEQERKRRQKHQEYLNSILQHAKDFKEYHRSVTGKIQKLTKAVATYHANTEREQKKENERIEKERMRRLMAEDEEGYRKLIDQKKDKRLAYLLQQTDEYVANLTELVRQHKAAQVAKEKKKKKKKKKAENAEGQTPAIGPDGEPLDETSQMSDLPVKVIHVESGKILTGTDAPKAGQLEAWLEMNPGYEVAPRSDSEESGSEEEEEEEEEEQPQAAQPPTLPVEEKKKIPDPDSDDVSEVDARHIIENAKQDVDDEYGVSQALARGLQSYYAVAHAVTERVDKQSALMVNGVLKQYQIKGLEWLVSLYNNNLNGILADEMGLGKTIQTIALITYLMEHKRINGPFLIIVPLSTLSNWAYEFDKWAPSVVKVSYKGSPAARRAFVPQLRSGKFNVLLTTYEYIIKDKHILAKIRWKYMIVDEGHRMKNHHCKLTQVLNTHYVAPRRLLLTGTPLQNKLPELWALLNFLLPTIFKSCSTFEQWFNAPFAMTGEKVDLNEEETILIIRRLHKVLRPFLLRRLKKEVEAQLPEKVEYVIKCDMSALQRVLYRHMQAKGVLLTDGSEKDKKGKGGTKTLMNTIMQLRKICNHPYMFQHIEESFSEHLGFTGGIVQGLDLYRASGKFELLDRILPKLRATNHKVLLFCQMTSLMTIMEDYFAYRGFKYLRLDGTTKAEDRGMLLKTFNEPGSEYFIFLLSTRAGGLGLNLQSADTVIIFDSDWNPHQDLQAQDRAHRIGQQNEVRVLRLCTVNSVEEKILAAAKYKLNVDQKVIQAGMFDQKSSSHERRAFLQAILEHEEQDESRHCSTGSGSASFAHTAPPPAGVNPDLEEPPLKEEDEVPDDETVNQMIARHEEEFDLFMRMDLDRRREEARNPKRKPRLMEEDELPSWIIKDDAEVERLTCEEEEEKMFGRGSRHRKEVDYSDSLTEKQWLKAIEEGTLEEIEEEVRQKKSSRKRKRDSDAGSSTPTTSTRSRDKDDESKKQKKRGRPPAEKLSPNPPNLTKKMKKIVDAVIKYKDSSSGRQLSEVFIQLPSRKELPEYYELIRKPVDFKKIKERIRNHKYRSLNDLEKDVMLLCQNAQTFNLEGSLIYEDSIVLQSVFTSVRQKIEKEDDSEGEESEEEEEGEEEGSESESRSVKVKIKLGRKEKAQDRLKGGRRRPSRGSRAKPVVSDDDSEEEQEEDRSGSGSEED
T1 sequence (P51531 whole entry, the tested form may be a part): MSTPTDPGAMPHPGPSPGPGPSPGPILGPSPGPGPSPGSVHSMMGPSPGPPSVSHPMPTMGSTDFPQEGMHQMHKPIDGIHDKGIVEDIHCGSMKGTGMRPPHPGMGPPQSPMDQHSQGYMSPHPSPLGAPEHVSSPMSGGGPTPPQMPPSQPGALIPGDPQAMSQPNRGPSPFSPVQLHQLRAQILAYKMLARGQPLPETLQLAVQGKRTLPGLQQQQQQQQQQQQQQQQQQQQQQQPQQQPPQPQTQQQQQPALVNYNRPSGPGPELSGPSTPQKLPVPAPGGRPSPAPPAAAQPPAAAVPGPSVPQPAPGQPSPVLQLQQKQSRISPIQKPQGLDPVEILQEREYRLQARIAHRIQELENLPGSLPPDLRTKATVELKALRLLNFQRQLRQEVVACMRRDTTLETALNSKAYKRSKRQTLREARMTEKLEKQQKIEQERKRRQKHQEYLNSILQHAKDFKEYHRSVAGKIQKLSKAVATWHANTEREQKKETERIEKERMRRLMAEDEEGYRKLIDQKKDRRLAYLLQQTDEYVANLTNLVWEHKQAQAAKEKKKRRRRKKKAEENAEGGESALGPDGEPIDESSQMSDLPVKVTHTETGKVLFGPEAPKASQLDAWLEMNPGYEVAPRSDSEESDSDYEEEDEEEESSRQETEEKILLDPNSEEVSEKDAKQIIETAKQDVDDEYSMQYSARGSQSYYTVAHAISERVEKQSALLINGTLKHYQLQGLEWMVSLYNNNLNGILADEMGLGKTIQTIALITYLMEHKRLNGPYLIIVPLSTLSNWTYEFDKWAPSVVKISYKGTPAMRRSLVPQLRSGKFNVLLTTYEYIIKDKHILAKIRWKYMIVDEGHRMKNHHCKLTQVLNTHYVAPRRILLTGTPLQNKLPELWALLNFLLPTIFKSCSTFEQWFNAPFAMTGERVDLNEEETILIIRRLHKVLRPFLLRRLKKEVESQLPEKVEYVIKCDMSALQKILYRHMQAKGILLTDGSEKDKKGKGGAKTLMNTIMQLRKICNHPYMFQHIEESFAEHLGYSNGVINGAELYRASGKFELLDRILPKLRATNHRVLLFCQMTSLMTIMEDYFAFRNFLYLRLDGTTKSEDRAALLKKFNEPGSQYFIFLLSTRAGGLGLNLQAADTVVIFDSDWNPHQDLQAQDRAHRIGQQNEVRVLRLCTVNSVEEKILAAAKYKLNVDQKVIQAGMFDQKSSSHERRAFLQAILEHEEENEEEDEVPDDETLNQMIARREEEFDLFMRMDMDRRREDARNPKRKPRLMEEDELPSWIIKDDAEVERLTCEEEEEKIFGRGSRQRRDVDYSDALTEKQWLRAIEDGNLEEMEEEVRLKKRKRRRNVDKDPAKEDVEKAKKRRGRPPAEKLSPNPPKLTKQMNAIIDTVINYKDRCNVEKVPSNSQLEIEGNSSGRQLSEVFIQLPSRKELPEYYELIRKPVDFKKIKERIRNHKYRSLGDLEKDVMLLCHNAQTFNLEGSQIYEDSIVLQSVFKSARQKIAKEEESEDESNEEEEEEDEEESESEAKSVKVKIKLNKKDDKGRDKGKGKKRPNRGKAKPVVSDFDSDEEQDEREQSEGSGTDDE

`Cc1ncsc1-c1ccc([C@H](C)NC(=O)[C@@H]2C[C@@H](O)CN2C(=O)[C@@H](c2cc(OCCNC(=O)[C@H]3C[C@@]4(Cc5cc(-c6ccccc6O)nnc5N4)C3)no2)C(C)C)cc1` (racemic) [Compound 70, (1R,3s)-N-(2-((5-((R)-1-((2S,4R)-4-hydroxy-2-(((S)-1-(4-(4-methylthiazol-5-yl)phenyl)ethyl)carbamoyl)pyrrolidin-1-yl)-3-methyl-1-oxobutan-2-yl)isoxazol-3-yl)oxy)ethyl)-3′-(2-hydroxyphenyl)-5′,7′-dihydrospiro[cyclobutane-1,6′-pyrrolo[2,3-c]pyridazine]-3-carboxamide]: at HiBit-BRM fusion protein, the “BRM HiBit Degradation Maximum (%)” value is recorded as “B (“B” indicates maximum degradation ≥ 50%)” and the DC50 was greater than 100 nM. Also, the Dmax in assay [1] is less than 50%.

`Cc1ncsc1-c1ccc([C@H](C)NC(=O)[C@@H]2C[C@@H](O)CN2C(=O)[C@@H](c2cc(N3CCC(C(=O)NC(=N)N4CCc5[nH]c6nnc(-c7ccccc7O)cc6c5C4)CC3)no2)C(C)C)cc1` (racemic) [Compound 74, 1-{5-[(2R)-1-[(2S,4R)-4-hydroxy-2-{[(1S)-1-[4-(4-methyl-1,3-thiazol-5-yl)phenyl]ethyl]carbamoyl}pyrrolidin-1-yl]-3-methyl-1-oxobutan-2-yl]-1,2-oxazol-3-yl}-N-[12-(2-hydroxyphenyl)-4,8,10,11-tetraazatricyclo[7.4.0.0^{2,7}]trideca-1(13),2(7),9,11-tetraene-4-carboximidoyl]piperidine-4-carboxamide]: at HiBit-BRM fusion protein, the “BRM HiBit Degradation Maximum (%)” value is on record as “A (“A” indicates maximum degradation ≥ 75%)” and the DC50 was greater than 10 nM. Moreover, the Dmax in assay [1] was less than 50%.

`O=C1CCC(N2C(=O)c3cccc(NCCCCCCCCC(=O)N4CC(c5cc6cc(-c7ccccc7O)nnc6[nH]5)C4)c3C2=O)C(=O)N1` (stereo not shown) [Compound 33, 2-(2,6-dioxopiperidin-3-yl)-4-((9-(3-(3-(2-hydroxyphenyl)-7H-pyrrolo[2,3-c]pyridazin-6-yl)azetidin-1-yl)-9-oxononyl)amino)isoindoline-1,3-dione]: the “BRM HiBit Degradation Maximum (%)” value at HiBit-BRM fusion protein is “C (“C” indicates maximum degradation < 50%)”. In addition, the Dmax in assay [1] is less than 50%.

Take `Cc1ncsc1-c1ccc([C@H](C)NC(=O)C2C[C@@H](O)CN2C(=O)[C@@H](c2cc(OCCN3C[C@H]4C[C@H](c5[nH]c6nnc(-c7ccccc7O)cc6c5C)C[C@H]4C3)no2)C(C)C)cc1` (single isomer, unassigned) [Compound 112]: at HiBit-BRM fusion protein, the “BRM HiBit Degradation Maximum (%)” value is “A (“A” indicates maximum degradation ≥ 75%)”. The DC50 on HiBit-BRM fusion protein was less than 10 nM; in assay [1] (read-out: BRMG1 HiBit Degradation IC50), greater than 10 nM. The Dmax in assay [1] is greater than 75%.

Regarding `Cc1ncsc1-c1ccc([C@H](C)NC(=O)[C@@H]2C[C@@H](O)CN2C(=O)[C@@H](c2cc(OCCN3CC(C4(C)Cc5cc(-c6ccccc6O)nnc5N4)C3)no2)C(C)C)cc1` (stereo partly drawn) [Compound 122, (2S,4R)-4-hydroxy-1-((2R)-2-(3-(2-(3-(3-(2-hydroxyphenyl)-6-methyl-6,7-dihydro-5H-pyrrolo[2,3-c]pyridazin-6-yl)azetidin-1-yl)ethoxy)isoxazol-5-yl)-3-methylbutanoyl)-N-((S)-1-(4-(4-methylthiazol-5-yl)phenyl)ethyl)pyrrolidine-2-carboxamide], the “BRM HiBit Degradation Maximum (%)” value at HiBit-BRM fusion protein is on record as “C (“C” indicates maximum degradation < 50%)”. For the same molecule, the Dmax in assay [1] is greater than 50%.

On to `Cc1ncsc1-c1ccc([C@H](C)NC(=O)[C@@H]2C[C@@H](O)CN2C(=O)[C@@H](c2cc(OCCN3C[C@@H]4[C@H](C3)[C@H]4c3cc4cc(-c5cccc(F)c5O)nnc4[nH]3)no2)C(C)C)cc1` (racemic) [Compound 142, (2S,4R)-1-((R)-2-(3-(2-((1R,5S,6R)-6-(3-(3-fluoro-2-hydroxyphenyl)-7H-pyrrolo[2,3-c]pyridazin-6-yl)-3-azabicyclo[3.1.0]hexan-3-yl)ethoxy)isoxazol-5-yl)-3-methylbutanoyl)-4-hydroxy-N-((S)-1-(4-(4-methylthiazol-5-yl)phenyl)ethyl)pyrrolidine-2-carboxamide], for which, at HiBit-BRM fusion protein, the “BRM HiBit Degradation Maximum (%)” value was “A (“A” indicates maximum degradation ≥ 75%)” and the DC50 was greater than 10 nM. For the same molecule, the Dmax in assay [1] was less than 50%.

Regarding `Cc1ncsc1-c1ccc([C@H](C)NC(=O)[C@@H]2C[C@@H](O)CN2C(=O)[C@@H](c2cc(OCCN3CC[C@H](c4cc5cc(-c6ccccc6O)nnc5[nH]4)C3)no2)C(C)C)cc1` (racemic) [Compound 280, (2S,4R)-4-hydroxy-1-((R)-2-(3-(2-((S)-3-(3-(2-hydroxyphenyl)-7H-pyrrolo[2,3-c]pyridazin-6-yl)pyrrolidin-1-yl)ethoxy)isoxazol-5-yl)-3-methylbutanoyl)-N-((S)-1-(4-(4-methylthiazol-5-yl)phenyl)ethyl)pyrrolidine-2-carboxamide], on HiBit-BRM fusion protein, the “BRM HiBit Degradation Maximum (%)” value is listed as “A (“A” indicates maximum degradation ≥ 75%)” and the DC50 is greater than 10 nM. Besides, the Dmax in assay [1] is less than 50%.

As for `Cc1ncsc1C12CC(CNC(=O)[C@@H]3C[C@@H](O)CN3C(=O)[C@@H](c3cc(OCCN4CC(c5cc6cc(-c7ccccc7O)nnc6[nH]5)C4)no3)C(C)C)(C1)C2` (single isomer, unassigned) [Compound 115], the “BRM HiBit Degradation Maximum (%)” value on HiBit-BRM fusion protein is recorded as “C (“C” indicates maximum degradation < 50%)”. Besides, the Dmax in assay [1] was less than 50%.

For the molecule `Cc1ncsc1-c1ccc([C@H](C)NC(=O)[C@@H]2C[C@@H](O)CN2C(=O)[C@@H](c2cc(N3C[C@@H]4C[C@H]3CN4C(=O)[C@@H]3CCc4[nH]c5nnc(-c6ccccc6O)cc5c4C3)no2)C(C)C)cc1` (single isomer, unassigned) [Compound 102], the “BRM HiBit Degradation Maximum (%)” value at HiBit-BRM fusion protein is on record as “A (“A” indicates maximum degradation ≥ 75%)”. Besides, in assay [1], the Dmax was less than 50%.

`Cc1ncsc1-c1ccc(CNC(=O)[C@@H]2C[C@@H](O)CN2C(=O)[C@@H](NC(=O)CCCCC(=O)N[C@@H]2CCc3[nH]c4nnc(-c5ccccc5O)cc4c3C2)C(C)(C)C)cc1` [Compound 170, N1-((S)-1-((2S,4R)-4-hydroxy-2-((4-(4-methylthiazol-5-yl)benzyl)carbamoyl)pyrrolidin-1-yl)-3,3-dimethyl-1-oxobutan-2-yl)-N6-((R)-3-(2-hydroxyphenyl)-6,7,8,9-tetrahydro-5H-pyridazino[3,4-b]indol-6-yl)adipamide]: the “BRM HiBit Degradation Maximum (%)” value on HiBit-BRM fusion protein is listed as “C (“C” indicates maximum degradation < 50%)”. Besides, the Dmax in assay [1] was less than 50%.

With `Cc1ncsc1C12CC(CNC(=O)[C@@H]3C[C@@H](O)CN3C(=O)[C@H](c3cc(OCCN4CC(c5cc6cc(-c7ccccc7O)nnc6[nH]5)C4)no3)C(C)C)(C1)C2` (single isomer, unassigned) [Compound 114], on HiBit-BRM fusion protein, the “BRM HiBit Degradation Maximum (%)” value was “C (“C” indicates maximum degradation < 50%)”. The Dmax in assay [1] is less than 50%.

For `Cc1ncsc1-c1ccc([C@H](C)NC(=O)[C@@H]2C[C@@H](O)CN2C(=O)[C@@H](c2cc(OCCNC(=O)CN3CC(c4cc5cc(-c6ccccc6O)nnc5[nH]4)C3)no2)C(C)C)cc1` (racemic) [Compound 249, (2S,4R)-4-hydroxy-1-((R)-2-(3-(2-(2-(3-(3-(2-hydroxyphenyl)-7H-pyrrolo[2,3-c]pyridazin-6-yl)azetidin-1-yl)acetamido)ethoxy)isoxazol-5-yl)-3-methylbutanoyl)-N-((S)-1-(4-(4-methylthiazol-5-yl)phenyl)ethyl)pyrrolidine-2-carboxamide], at HiBit-BRM fusion protein, the “BRM HiBit Degradation Maximum (%)” value is given as “A (“A” indicates maximum degradation ≥ 75%)” and the DC50 is greater than 100 nM. In assay [1], the Dmax was less than 50%.
